Results on 13 compounds are retold here after ChEMBL document CHEMBL3397007, “Synthesis, biological activity and molecular modeling of new biphenylic carboxamides as potent and selective CB2 receptor ligands” (Eur J Med Chem, 2015).

Calls of active or inactive are those of the source. The calls are words filed in the database; no cut-off is given here. Some results are limits rather than exact numbers.

In one test the target is Cannabinoid receptor 1 (Homo sapiens, UniProt P21554). As to the kind of experiment: Displacement of [3H]CP55,940 from human recombinant CB1 receptor expressed in HEK293 cell membranes after 90 mins. In general terms: Displacement assays read how much labelled ligand stays bound in the presence of the test substance.
Sequence of Cannabinoid receptor 1 (P21554 whole entry): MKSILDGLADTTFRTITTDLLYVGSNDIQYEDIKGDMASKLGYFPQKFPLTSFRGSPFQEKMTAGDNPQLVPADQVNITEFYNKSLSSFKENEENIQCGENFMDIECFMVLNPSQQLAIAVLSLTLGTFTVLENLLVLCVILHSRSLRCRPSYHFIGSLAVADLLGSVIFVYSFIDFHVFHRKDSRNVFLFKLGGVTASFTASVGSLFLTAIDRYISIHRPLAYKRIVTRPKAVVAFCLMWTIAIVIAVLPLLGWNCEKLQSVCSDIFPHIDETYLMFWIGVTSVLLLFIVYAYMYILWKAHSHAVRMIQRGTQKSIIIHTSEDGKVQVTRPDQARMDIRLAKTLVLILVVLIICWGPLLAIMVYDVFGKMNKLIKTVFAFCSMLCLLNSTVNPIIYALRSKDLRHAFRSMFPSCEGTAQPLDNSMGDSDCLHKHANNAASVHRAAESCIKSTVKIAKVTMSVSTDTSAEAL
For test [1], the target named is T1, Cannabinoid receptor 2 (Homo sapiens, UniProt P34972). Nature of the test: Displacement of [3H]CP55,940 from human recombinant CB2 receptor expressed in HEK293 cell membranes after 90 mins.
T1 sequence (P34972 whole entry): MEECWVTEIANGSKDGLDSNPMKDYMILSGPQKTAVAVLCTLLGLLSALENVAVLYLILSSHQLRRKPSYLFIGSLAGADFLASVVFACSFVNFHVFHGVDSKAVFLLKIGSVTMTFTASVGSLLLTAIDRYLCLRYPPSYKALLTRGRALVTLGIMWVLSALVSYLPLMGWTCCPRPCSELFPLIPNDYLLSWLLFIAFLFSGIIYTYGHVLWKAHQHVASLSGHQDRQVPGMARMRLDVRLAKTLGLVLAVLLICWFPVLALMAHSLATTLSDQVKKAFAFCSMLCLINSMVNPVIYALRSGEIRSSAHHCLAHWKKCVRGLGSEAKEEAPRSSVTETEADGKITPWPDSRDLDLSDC
The target in test [2] is T1, Cannabinoid receptor 2. Nature of the test: Activity at human CB2 receptor expressed in CHO cell membranes by [35S]GTPgammaS binding assay. It is filed as functional. Background: GTPγS is a poorly hydrolysed GTP analogue; its binding reports G protein activation.
In test [3] the target is T1, Cannabinoid receptor 2. Nature of the test: Antagonist activity at human CB2 receptor expressed in CHO cell membranes assessed as inhibition of HU-210-induced [35S]GTPgammaS binding. Type of test: functional.
Test [4] addresses T1, Cannabinoid receptor 2. Nature of the test: Neutral antagonist activity at human CB2 receptor expressed in CHO membranes assessed as inhibition of agonist HU-210-induced responses by [35S]GTPgammaS binding assay. Type of test: functional, cell membranes.
The subject of another test is HEK293. As to the kind of experiment: Selectivity index, ratio of Ki for human recombinant CB1 receptor expressed in HEK293 cell membranes to Ki for human recombinant CB2 receptor expressed in HEK293 cell membranes. Type of test: cell-based.
The target of test [5] is T1, Cannabinoid receptor 2. As to the kind of experiment: Neutral antagonist activity at human CB2 receptor expressed in CHO membranes assessed as inhibition of inverse agonist SR144528-induced responses by [35S]GTPgammaS binding assay. It is filed as functional, cell membranes.
In test [6] the target is T1, Cannabinoid receptor 2. As to the kind of experiment: Competitive antagonist activity at human CB2 receptor expressed in CHO membranes assessed as inhibition of HU-210-induced [35S]GTPgammaS binding by Schild-plot. The note with it: read-out: pA2 (converted). Type of test: functional, cell membranes.
Test [7] has as its target Cannabinoid receptor 1 (Rattus norvegicus) (UniProt P20272). As to the kind of experiment: Antagonist activity at CB1 receptor in rat cerebellar membranes assessed as inhibition of HU-210-induced [35S]GTPgammaS binding at 10 uM. It is filed as functional, cell membranes. The note with it: Cerebellum, Membrane.
In test [8] the target is T1, Cannabinoid receptor 2. Nature of the test: Agonist activity at human CB2 receptor expressed in CHO cell membranes by [35S]GTPgammaS binding assay. It is filed as functional.
In test [9] the target is Cannabinoid receptor 1 (Rattus norvegicus) (UniProt P20272). As to the kind of experiment: Agonist activity at CB1 receptor in rat cerebellar membranes at < 10 uM by [35S]GTPgammaS binding assay. It is filed as functional, cell membranes. The note with it: Cerebellum, Membrane.
Sequence of Cannabinoid receptor 1 (Rattus norvegicus) (P20272 whole entry): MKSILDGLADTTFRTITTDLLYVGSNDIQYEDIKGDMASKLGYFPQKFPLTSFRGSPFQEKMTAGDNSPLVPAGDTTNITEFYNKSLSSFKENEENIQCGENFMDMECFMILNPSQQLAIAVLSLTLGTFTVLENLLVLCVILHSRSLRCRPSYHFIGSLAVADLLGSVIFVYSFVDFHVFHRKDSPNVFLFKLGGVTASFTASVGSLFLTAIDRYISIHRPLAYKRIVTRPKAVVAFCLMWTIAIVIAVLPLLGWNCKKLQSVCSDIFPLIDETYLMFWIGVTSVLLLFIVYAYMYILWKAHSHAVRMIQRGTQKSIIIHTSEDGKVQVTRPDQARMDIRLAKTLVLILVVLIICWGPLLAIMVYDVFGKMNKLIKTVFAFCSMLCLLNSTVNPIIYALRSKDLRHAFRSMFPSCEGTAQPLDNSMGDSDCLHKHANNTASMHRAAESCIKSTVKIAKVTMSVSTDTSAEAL

The Ki is the equilibrium dissociation constant of an inhibitor or competing ligand from its target. For the compound `COc1ccc(-c2cc(C)c(OC)c(C(=O)NC3CCCCCC3)c2)cc1`, the Ki on Cannabinoid receptor 1 and at Cannabinoid receptor 2 [1] was more than 10 µM each time.
For `CCCCc1cc(-c2ccc(OC)cc2)cc(C(=O)NC2CCCCCC2)c1OC`, on Cannabinoid receptor 2 [2], the result was inactive. The Ki worked out at 1.49 µM at Cannabinoid receptor 1 and 0.0115 µM on Cannabinoid receptor 2 [1]. The inhibition entry at Cannabinoid receptor 2 [3] is “Active”. Further, the inhibition result on Cannabinoid receptor 2 [4] and on Cannabinoid receptor 2 [5] was “Dose-dependent effect” throughout. Moreover, the Ratio Ki with HEK293 was 130. Besides, at Cannabinoid receptor 2 [6], the Kb was 0.794 µM.
In the case of `CCCCc1cc(-c2ccc(OC)cc2)cc(C(=O)N[C@H]2CC[C@@H](C)CC2)c1OC`, the outcome on Cannabinoid receptor 2 [2] was inactive. Also, the inhibition constant (Ki) at Cannabinoid receptor 1 worked out at 1.55 µM; on Cannabinoid receptor 2 [1], 0.022 µM. For the same compound, on Cannabinoid receptor 2 [3], the inhibition entry was “Active”. The Ratio Ki in the test on HEK293 was determined as 70.
In the case of `COc1ccc(-c2cc(C)c(OC)c(C(=O)N[C@H]3CC[C@@H](C)CC3)c2)cc1`, the Ki on Cannabinoid receptor 1 and on Cannabinoid receptor 2 [1] was more than 10 µM throughout.
Regarding `COc1c(C)cc(-c2ccccc2)cc1C(=O)N[C@H]1CC[C@H](C)CC1`, the Ki amounted to 1.53 µM on Cannabinoid receptor 1 and 0.09 µM on Cannabinoid receptor 2 [1]. The Ratio Ki in the test with HEK293 stood at 17.
For the compound `CCCC(C)(C)c1ccc2c(c1)OC(C)(C)[C@@H]1CC=C(C)C[C@@H]21`, the Ratio Ki with HEK293 worked out at 226.
For the compound `COc1c(C)cc(-c2ccccc2)cc1C(=O)NC1CCCCCC1`, the Ki was 0.87 µM on Cannabinoid receptor 1 and 0.1 µM on Cannabinoid receptor 2 [1]. The Ratio Ki in the test with HEK293 was 8.7.
In the case of `COc1ccc(-c2cc(C)c(OC)c(C(=O)N[C@H]3CC[C@H](C)CC3)c2)cc1`, the inhibitory constant (Ki) at Cannabinoid receptor 1 and at Cannabinoid receptor 2 [1] was more than 10 µM in each case.
One may read the EC50 as the concentration at which the effect is half-maximal. A low value points to an effect from little substance. Take `COc1c(C)cc(-c2ccc(F)cc2)cc1C(=O)N[C@H]1CC[C@@H](C)CC1`: the inhibition entry in test [7] is “Active”. In addition, the figures for the Ki on Cannabinoid receptor 1 and on Cannabinoid receptor 2 [1] were 0.18 µM and 0.06 µM, respectively. Moreover, at Cannabinoid receptor 2 [8], a half-maximal effect (EC50) was put at 0.398 µM. For the same compound, in the test with HEK293, the Ratio Ki is 3. In addition, the outcome in test [9] was inactive.
Turning to `COc1c(C)cc(-c2ccc(F)cc2)cc1C(=O)NC1CCCCCC1`, the inhibition entry in test [7] was “Active”. Also, the figures for the Ki on Cannabinoid receptor 1 and at Cannabinoid receptor 2 [1] were 0.16 µM and 0.06 µM, respectively. The same compound showed an EC50 on Cannabinoid receptor 2 [8] of 0.398 µM. Further, in the test on HEK293, the Ratio Ki worked out at 2.67. In addition, the outcome in test [9] was inactive.
With `COc1c(C)cc(-c2ccccc2)cc1C(=O)N[C@H]1CC[C@@H](C)CC1`, the Ki was determined as 1.09 µM at Cannabinoid receptor 1 and 0.15 µM at Cannabinoid receptor 2 [1]. Moreover, the Ratio Ki in the test on HEK293 stood at 7.27.
Regarding `COc1c(C)cc(-c2ccc(F)cc2)cc1C(=O)N[C@H]1CC[C@H](C)CC1`, the Ki on Cannabinoid receptor 1 worked out at 0.62 µM; at Cannabinoid receptor 2 [1], 0.09 µM. Also, the Ratio Ki with HEK293 was 6.89.
On to `CCCCc1cc(-c2ccc(OC)cc2)cc(C(=O)N[C@H]2CC[C@H](C)CC2)c1OC`, for which the outcome at Cannabinoid receptor 2 [2] was inactive. In addition, the values for the Ki on Cannabinoid receptor 1 and at Cannabinoid receptor 2 [1] were 2.29 µM and 0.143 µM, respectively. Also, at Cannabinoid receptor 2 [3], the inhibition result was “Active”. Moreover, in the test with HEK293, the Ratio Ki amounted to 16.
